Test results as given in patent US9265253B2, “Use of macrocyclic picolinamides as fungicides” (DOW AGROSCIENCES LLC, priority 2013, dated 2016).

Legend:
Type in all cases: in vivo
[1] = test system: Leptosphaeria nodorum; experiment: Wheat Glume Blotch (LEPTNO) disease control; conditions: Parastagonospora nodorum, topical, 24 h, 1 Day Protectant, read-out: Disease Control LEPTNO 1 DP
Procedure: Technical grades of materials were dissolved in acetone, which were then mixed with nine volumes of water containing 110 ppm Triton X-100. The fungicide solutions were applied onto wheat seedlings using an automated booth sprayer to run-off. All sprayed plants were allowed to air dry prior to further handling. All fungicides were evaluated using the aforementioned method for their activity vs. all target diseases. Wheat leaf blotch and brown rust activity were also evaluated using track spray applications, in which case the fungicides were formulated as EC formulations, containing 0.1% Trycol 5941 in the spray solutions. Wheat plants (variety Yuma) were grown from seed in a greenhouse in 50% mineral soil/50% soil-less Metro mix until the first leaf was fully emerged, with 7-10 seedlings per pot. These plants were inoculated with an aqueous spore suspension of Septoria tritici either prior to or after fungicide treatments. After inoculation the plants were kept in 100% relative humidity (one day in a dark dew chamber followed by two to three days in a lighted dew chamber at 20° C.) to permit spores to germinate and infect the leaf. The plants were then transferred to a greenhouse set at 20° C. for disease to develop. When disease symptoms were fully expressed on the 1st leaves of untreated plants, infection levels were assessed on a scale of 0 to 100 percent disease severity. Percent disease control was calculated using the ratio of disease severity on treated plants relative to untreated plants. Wheat plants (variety Yuma) were grown from seed in a greenhouse in 50% mineral soil/50% soil-less Metro mix until the first leaf was fully emerged, with 7-10 seedlings per pot. These plants were inoculated with an aqueous spore suspension of Leptosphaeria nodorum 24 hr after fungicide treatments. After inoculation the plants were kept in 100% relative humidity (one day in a dark dew chamber followed by two days in a lighted dew chamber at 20° C.) to permit spores to germinate and infect the leaf. The plants were then transferred to a greenhouse set at 20° C. for disease to develop. Fungicide formulation, application and disease assessment followed the procedures as described in the Example A.

[2] = test system: Alternaria solani; experiment: Tomato Early Blight (ALTESO) disease control; conditions: Alternaria solani, topical, 24 h, 1 Day Protectant, read-out: Disease Control ALTESO 1 DP
Procedure: Technical grades of materials were dissolved in acetone, which were then mixed with nine volumes of water containing 110 ppm Triton X-100. The fungicide solutions were applied onto wheat seedlings using an automated booth sprayer to run-off. All sprayed plants were allowed to air dry prior to further handling. All fungicides were evaluated using the aforementioned method for their activity vs. all target diseases. Wheat leaf blotch and brown rust activity were also evaluated using track spray applications, in which case the fungicides were formulated as EC formulations, containing 0.1% Trycol 5941 in the spray solutions. Wheat plants (variety Yuma) were grown from seed in a greenhouse in 50% mineral soil/50% soil-less Metro mix until the first leaf was fully emerged, with 7-10 seedlings per pot. These plants were inoculated with an aqueous spore suspension of Septoria tritici either prior to or after fungicide treatments. After inoculation the plants were kept in 100% relative humidity (one day in a dark dew chamber followed by two to three days in a lighted dew chamber at 20° C.) to permit spores to germinate and infect the leaf. The plants were then transferred to a greenhouse set at 20° C. for disease to develop. When disease symptoms were fully expressed on the 1st leaves of untreated plants, infection levels were assessed on a scale of 0 to 100 percent disease severity. Percent disease control was calculated using the ratio of disease severity on treated plants relative to untreated plants. Tomato plants (variety Outdoor girl) were propagated in soil-less Metro mix, with each pot having one plant, and used when 12 to 14 days old. Test plants were inoculated with an aqueous spore suspension of Alternaria solani 24 hr after fungicide treatments. After inoculation the plants were kept in 100% relative humidity (one day in a dark dew chamber followed by two to three days in a lighted dew chamber at 20° C.) to permit spores to germinate and infect the leaf. The plants were then transferred to a growth room at 22° C. for disease to develop. Fungicide formulation, application and disease assessment on the sprayed leaves followed the procedures as described in the Example A.

[3] = test system: Erysiphe cichoracearum; experiment: Powdery Mildew of Cucumber (ERYSCI) disease control; conditions: Golovinomyces cichoracearum, topical, 24 h, 1 Day Protectant, read-out: Disease Control ERYSCI 1 DP
Procedure: Technical grades of materials were dissolved in acetone, which were then mixed with nine volumes of water containing 110 ppm Triton X-100. The fungicide solutions were applied onto wheat seedlings using an automated booth sprayer to run-off. All sprayed plants were allowed to air dry prior to further handling. All fungicides were evaluated using the aforementioned method for their activity vs. all target diseases. Wheat leaf blotch and brown rust activity were also evaluated using track spray applications, in which case the fungicides were formulated as EC formulations, containing 0.1% Trycol 5941 in the spray solutions. Wheat plants (variety Yuma) were grown from seed in a greenhouse in 50% mineral soil/50% soil-less Metro mix until the first leaf was fully emerged, with 7-10 seedlings per pot. These plants were inoculated with an aqueous spore suspension of Septoria tritici either prior to or after fungicide treatments. After inoculation the plants were kept in 100% relative humidity (one day in a dark dew chamber followed by two to three days in a lighted dew chamber at 20° C.) to permit spores to germinate and infect the leaf. The plants were then transferred to a greenhouse set at 20° C. for disease to develop. When disease symptoms were fully expressed on the 1st leaves of untreated plants, infection levels were assessed on a scale of 0 to 100 percent disease severity. Percent disease control was calculated using the ratio of disease severity on treated plants relative to untreated plants. Cucumber seedlings (variety Bush Pickle) were grown in soil-less Metro mix, with one plant per pot, and used in the test when 12 to 14 days old. Plants were inoculated with a spore suspension 24 hr following fungicide treatments. After inoculation the plants remained in the greenhouse set at 20° C. until disease was fully expressed. Fungicide formulation, application and disease assessment on the sprayed leaves followed the procedures as described in the Example A.

[4] = test system: Blumeria graminis f. sp. hordei; Synonym: Erysiphe graminis f. sp. hordei; experiment: Barley Powdery Mildew (ERYSGH) disease control; conditions: 1 Day Protectant; for pest or weed control at 100 ppm: Blumeria graminis, 24 h, read-out: Disease Control ERYSGH 1 DP
Procedure: Technical grades of materials were dissolved in acetone, which were then mixed with nine volumes of water containing 110 ppm Triton X-100. The fungicide solutions were applied onto wheat seedlings using an automated booth sprayer to run-off. All sprayed plants were allowed to air dry prior to further handling. All fungicides were evaluated using the aforementioned method for their activity vs. all target diseases. Wheat leaf blotch and brown rust activity were also evaluated using track spray applications, in which case the fungicides were formulated as EC formulations, containing 0.1% Trycol 5941 in the spray solutions. Wheat plants (variety Yuma) were grown from seed in a greenhouse in 50% mineral soil/50% soil-less Metro mix until the first leaf was fully emerged, with 7-10 seedlings per pot. These plants were inoculated with an aqueous spore suspension of Septoria tritici either prior to or after fungicide treatments. After inoculation the plants were kept in 100% relative humidity (one day in a dark dew chamber followed by two to three days in a lighted dew chamber at 20° C.) to permit spores to germinate and infect the leaf. The plants were then transferred to a greenhouse set at 20° C. for disease to develop. When disease symptoms were fully expressed on the 1st leaves of untreated plants, infection levels were assessed on a scale of 0 to 100 percent disease severity. Percent disease control was calculated using the ratio of disease severity on treated plants relative to untreated plants. Barley seedlings (variety Harrington) were propagated in soil-less Metro mix, with each pot having 8 to 12 plants, and used in the test when first leaf was fully emerged. Test plants were inoculated by dusting with infected stock plants 24 hr after fungicide treatments. After inoculation the plants were kept in a greenhouse set at 20° C. for disease to develop. Fungicide formulation, application and disease assessment on the sprayed leaves followed the procedures as described in the Example A.

| SMILES | pest or weed control at 100 ppm [1] [%] | pest or weed control at 100 ppm [2] [%] | pest or weed control at 100 ppm [3] [%] | pest or weed control at 100 ppm [4] [%] | Disease Control ERYSGH 1 DP ([4]; 100 ppm) |
| --- | --- | --- | --- | --- | --- |
| COc1ccnc(C(=O)N[C@H]2CCC[C@H](Cc3ccc(F)cc3F)[C@@H](OC(=O)c3ccco3)[C@H](C)OC2=O)c1OCOC(C)=O [Compound F144] | 80 to 100 | 80 to 100 | 0 to 80 | – | – |
| COc1ccnc(C(=O)N[C@H]2CCC[C@H](Cc3ccccc3)[C@@H](Oc3ccccc3)[C@H](C)OC2=O)c1OCOC(C)=O [Compound F108] | 80 to 100 | – | – | 0 to 80 | – |
| CCCO[C@@H]1[C@@H](Cc2ccccc2)CCC[C@H](NC(=O)c2nccc(OC)c2OC(C)=O)C(=O)O[C@H]1C [Compound F88] | 80 to 100 | 80 to 100 | 80 to 100 | 80 to 100 | – |
| COc1ccnc(C(=O)N[C@H]2CCC[C@H](Cc3ccc(F)cc3F)[C@@H](OC(=O)c3ccco3)[C@H](C)OC2=O)c1OCOC(=O)C(C)C [Compound F157] | 80 to 100 | 80 to 100 | – | – | – |
| CCOCC(=O)OCOc1c(OC)ccnc1C(=O)N[C@H]1CCC[C@H](Cc2ccc(F)cc2F)[C@@H](OC(=O)c2ccco2)[C@H](C)OC1=O [Compound F193] | 80 to 100 | 80 to 100 | – | 0 to 80 | – |
| COCC[C@H]1CCC[C@H](NC(=O)c2nccc(OC)c2OCOC(C)=O)C(=O)O[C@@H](C)[C@@H]1Oc1ccccc1 [Compound F130] | 80 to 100 | 0 to 80 | 0 to 80 | 0 to 80 | – |
| C=C[C@H]1CCC[C@H](NC(=O)c2nccc(OC)c2OC(C)=O)C(=O)O[C@@H](C)[C@@H]1Oc1ccccc1 [Compound F86] | 80 to 100 | 0 to 80 | – | 0 to 80 | – |
| COc1ccnc(C(=O)N[C@H]2CCC[C@H](Cc3ccc(F)cc3)[C@@H](OCC3CC3)[C@H](C)OC2=O)c1OCOC(C)=O [Compound F96] | 80 to 100 | 80 to 100 | 80 to 100 | – | B (More than 0-Less than 80) |
| COc1ccnc(C(=O)N[C@H]2CCC[C@H](Cc3ccccc3)[C@@H](OCC(C)C)[C@H](C)OC2=O)c1OCOC(C)=O [Compound F106] | 80 to 100 | 80 to 100 | 80 to 100 | 80 to 100 | – |
| COc1ccnc(C(=O)N[C@H]2CCC[C@H](CCF)[C@@H](OCC(C)C)[C@H](C)OC2=O)c1OCOC(C)=O [Compound F128, ((2-(((3S,7R,8R,9S)-7-(2-fluoroethyl)-8-isobutoxy-9-methyl-2-oxooxonan-3-yl)carbamoyl)-4-methoxypyridin-3-yl)oxy)methyl acetate] | 80 to 100 | 80 to 100 | 0 to 80 | 0 to 80 | – |
| CCCO[C@@H]1[C@@H](CCC(C)C)CCC[C@H](NC(=O)c2nccc(OC)c2OCOC(=O)COCC)C(=O)O[C@H]1C [Compound F161] | 80 to 100 | 80 to 100 | 80 to 100 | 80 to 100 | – |
| CCCO[C@@H]1[C@@H](Cc2ccccc2)CCC[C@H](NC(=O)c2nccc(OC)c2OCOC(C)=O)C(=O)O[C@H]1C [Compound F109] | 80 to 100 | 80 to 100 | 80 to 100 | 80 to 100 | – |
| COc1ccnc(C(=O)N[C@H]2CCC[C@H](Cc3ccccc3)[C@@H](OC3CCCC3)[C@H](C)OC2=O)c1OCOC(C)=O [Compound F110] | 80 to 100 | – | – | 80 to 100 | – |
| CCOCC(=O)OCOc1c(OC)ccnc1C(=O)N[C@H]1CCC[C@H](Cc2ccc(F)cc2)[C@@H](OCC2CC2)[C@H](C)OC1=O [Compound F164] | 80 to 100 | 80 to 100 | 80 to 100 | 80 to 100 | – |
| COc1ccnc(C(=O)N[C@H]2CCC[C@H](Cc3ccc(F)cc3F)[C@@H](OCC(C)C)[C@H](C)OC2=O)c1OCOC(C)=O [Compound F145] | 80 to 100 | 80 to 100 | 80 to 100 | 80 to 100 | – |
| CCOCC(=O)OCOc1c(OC)ccnc1C(=O)N[C@H]1CCC[C@H](CCF)[C@@H](OCC(C)C)[C@H](C)OC1=O [Compound F181] | 80 to 100 | 80 to 100 | 0 to 80 | 0 to 80 | – |
| CCCO[C@@H]1[C@@H](Cc2ccccc2)CCC[C@H](NC(=O)c2nccc(OC)c2OCOC(=O)COCC)C(=O)O[C@H]1C [Compound F174] | 80 to 100 | 80 to 100 | 80 to 100 | 80 to 100 | – |
| C=C[C@H]1CCC[C@H](NC(=O)c2nccc(OC)c2OCOC(C)=O)C(=O)O[C@@H](C)[C@@H]1Oc1ccccc1 [Compound F146] | 80 to 100 | 80 to 100 | – | 0 to 80 | – |
